From US10258041B2, “Substituted pyrazolylpyrazole derivative and use of same as herbicide” (KYOYU AGRI CO., LTD., priority 2015, dated 2019) come the findings set out here.

Each structure is given as a SMILES string.

Format in all cases: in vivo
Data set [1] concerns Scirpus juncoides. Put plainly: Paddy herbicidal activity test. The settings on record: irrigated pot, treated at 3.5 leaf stage of Echinochloa crus-galli, 30 days. As for the experimental part:
(§1) Rice paddy soil was filled into a 1/10000 are pot followed by the addition of suitable amounts of water and chemical fertilizer, kneading, seeding with Echinochloa crus-galli, Monochoria vaginalis and Scirpus juncoides and maintaining in an irrigated state at a water depth of 3 cm. Wettable powders of Target Compound (I) shown in Table 1 prepared in compliance with the preparation examples were diluted with a suitable amount of water, rice plants in the 2.0 leaf stage were transplanted during 3.5 leaf stage of Echinochloa crus-galli, and treated by dropping in chemical in the prescribed amount per 10 are using a pipette. After treating for 30 days in a glass greenhouse at an average atmospheric temperature of […], the herbicidal efficacy thereof was investigated. Evaluation of herbicidal efficacy was carried out by comparing growth inhibition rate (%) with an untreated group, while evaluation of chemical damage was carried out by comparing growth inhibition rate (%) with the state of a complete eradication group, and were evaluated at 11 levels indicated below. • 0 (exponent): 0% to less than 10% (growth inhibition rate) • 1: 10% to less than 20% • 2: 20% to less than 30% • 3: 30% to less than 40% • 4: 40% to less than 50% • 5: 50% to less than 60% • 6: 60% to less than 70% • 7: 70% to less than 80% • 8: 80% to less than 90% • 9: 90% to less than 100% • 10: 100%

Data set [2] has as its system Monochoria vaginalis. Put plainly: Paddy herbicidal activity test. The conditions noted are these: irrigated pot, treated at 3.5 leaf stage of Echinochloa crus-galli, 30 days. As for the experimental part:
as §1

Data set [3] has as its system Echinochloa crus-galli. Put plainly: Paddy herbicidal activity test. The conditions noted are these: irrigated pot, treated at 3.5 leaf stage of Echinochloa crus-galli, 30 days. As for the experimental part:
as §1

Data set [4] relates to Amaranthus retroflexus. The data set is described as follows: Weed foliar treatment test (Test 3). The settings on record: foliar spray at 1.0 to 2.0 leaf stage of Digitaria ciliaris, 3 weeks, 25° C. As for the experimental part:
(§2) Evaluation of herbicidal efficacy was carried out by comparing growth inhibition rate (%) with an untreated group, while evaluation of chemical damage was carried out by comparing growth inhibition rate (%) with the state of a complete eradication group, and were evaluated at 11 levels indicated below. • 0 (exponent): 0% to less than 10% (growth inhibition rate) • 1: 10% to less than 20% • 2: 20% to less than 30% • 3: 30% to less than 40% • 4: 40% to less than 50% • 5: 50% to less than 60% • 6: 60% to less than 70% • 7: 70% to less than 80% • 8: 80% to less than 90% • 9: 90% to less than 100% • 10: 100% Soil was filled into a 1/6000 are pot followed by seeding with Digitaria ciliaris, Chenopodium album and Amaranthus retroflexus, covering with soil, and cultivating in a glass greenhouse at an average atmospheric temperature of 25° C. Wettable powders of Target Compound (I) shown in Table 1 prepared in compliance with the preparation examples were diluted with water to the prescribed amount of chemical and uniformly sprayed onto the weeds using 150 liters of sprayed water per 10 are when Digitaria ciliaris had grown to the 1.0 to 2.0 leaf stage. After treating for 3 weeks in a glass greenhouse at an average atmospheric temperature of 25° C., the herbicidal efficacy thereof was investigated. Evaluation of herbicidal efficacy was carried out in the same manner as the above-mentioned Test Example 1.

The test system of data set [5] is Digitaria ciliaris. The data set is described as follows: Weed foliar treatment test (Test 3). The conditions noted are these: foliar spray at 1.0 to 2.0 leaf stage of Digitaria ciliaris, 3 weeks, 25° C. As for the experimental part: as §2
For data set [6], the system named is Chenopodium album. Put plainly: Weed foliar treatment test (Test 3). The conditions noted are these: foliar spray at 1.0 to 2.0 leaf stage of Digitaria ciliaris, 3 weeks, 25° C. As for the experimental part:
as §2

Data set [7] has as its system Amaranthus retroflexus. The data set is described as follows: Farming soil treatment test. The conditions noted are these: soil surface spray prior to weed growth, 30 days, 30° C. As for the experimental part:
(§3) Evaluation of herbicidal efficacy was carried out by comparing growth inhibition rate (%) with an untreated group, while evaluation of chemical damage was carried out by comparing growth inhibition rate (%) with the state of a complete eradication group, and were evaluated at 11 levels indicated below. • 0 (exponent): 0% to less than 10% (growth inhibition rate) • 1: 10% to less than 20% • 2: 20% to less than 30% • 3: 30% to less than 40% • 4: 40% to less than 50% • 5: 50% to less than 60% • 6: 60% to less than 70% • 7: 70% to less than 80% • 8: 80% to less than 90% • 9: 90% to less than 100% • 10: 100% Field soil was filled into a 1/6000 are pot followed by seeding with Digitaria ciliaris, Chenopodium album and Amraranthus retroflexus and covering with soil. Wettable powders of compounds of formula (I) shown in Table 1 prepared in compliance with the preparation examples were diluted with water to the prescribed amount of chemical and uniformly sprayed onto each soil surface layer using 100 liters of sprayed water per 10 are prior to weed growth following seeding. After treating for 30 days in a glass greenhouse at an average atmospheric temperature of 30° C., the herbicidal efficacy thereof was investigated. Evaluation of herbicidal efficacy was carried out in the same manner as the above-mentioned Test Example 1,

Data set [8] relates to Digitaria ciliaris. The data set is described as follows: Farming soil treatment test. The settings on record: soil surface spray prior to weed growth, 30 days, 30° C. As for the experimental part:
as §3

Data set [9] deals with Chenopodium album. Put plainly: Farming soil treatment test. The settings on record: soil surface spray prior to weed growth, 30 days, 30° C. As for the experimental part: as §3
In data set [10] the test system is Galinsoga parviflora. Put plainly: Weed foliar treatment test (Test 4, higher leaf stage). The conditions noted are these: 10 g a.i./10a; foliar spray at 4.0 to 5.0 leaf stage of Digitaria ciliaris; 20 days, 25° C. As for the experimental part: (§4) Evaluation of herbicidal efficacy was carried out by comparing growth inhibition rate (%) with an untreated group, while evaluation of chemical damage was carried out by comparing growth inhibition rate (%) with the state of a complete eradication group, and were evaluated at 11 levels indicated below. • 0 (exponent): 0% to less than 10% (growth inhibition rate) • 1: 10% to less than 20% • 2: 20% to less than 30% • 3: 30% to less than 40% • 4: 40% to less than 50% • 5: 50% to less than 60% • 6: 60% to less than 70% • 7: 70% to less than 80% • 8: 80% to less than 90% • 9: 90% to less than 100% • 10: 100% Field soil was filled into a 1/4500 are pot followed by seeding with Digitaria ciliaris and Galinsoga parviflora, covering with soil and cultivating in a glass greenhouse at an average atmospheric temperature of 25° C. Wettable powders of Target Compound (I) shown, in Table 1 prepared in compliance with the preparation examples were diluted with water to the prescribed amount of chemical and uniformly sprayed onto the weeds using 100 liters of sprayed water per 10 are when Digitaria ciliaris had grown to the 4.0 to 5.0 leaf stage (plant height: 10 cm to 15 cm). After treating for 20 days in a glass greenhouse at an average atmospheric temperature of 25° C., the herbicidal efficacy thereof was investigated. Evaluation of herbicidal efficacy was carried out in the same manner as the above-mentioned Test Example 1.

In data set [11] the test system is Digitaria ciliaris. The data set is described as above. The settings on record: 10 g a.i./10a; foliar spray at 4.0 to 5.0 leaf stage of Digitaria ciliaris (plant height 10 cm to 15 cm); 20 days, 25° C. As for the experimental part:
as §4

Data set [12] deals with Oryza sativa. Put plainly: Paddy herbicidal activity test, chemical damage to transplanted rice. The conditions noted are these: rice transplanted in 2.0 leaf stage, 30 days. As for the experimental part:
as §1

As to `N#Cc1cnn(-c2nn3c(c2Cl)CCCC3)c1NC(=O)CCCl` [Control Agent 1.36], the results for the “herbicidal efficacy (growth inhibition rate level), Scirpus juncoides” value in data set [1] (1 g a.i./10a) and in data set [1] (5 g a.i./10a) were 1 (1: 10% to less than 20%) and 3 (3: 30% to less than 40%), respectively. The “herbicidal efficacy (growth inhibition rate level), Monochoria vaginalis” value in data set [2] (1 g a.i./10a) is 3 (3: 30% to less than 40%); in data set [2] (5 g a.i./10a) it was 4 (4: 40% to less than 50%). The “herbicidal efficacy (growth inhibition rate level), Echinochloa crus-galli” value in [3] (1 g a.i./10a) is reported as 2 (2: 20% to less than 30%); in [3] (5 g a.i./10a), 4 (4: 40% to less than 50%). The “herbicidal efficacy (growth inhibition rate level), Amaranthus retroflexus” value is recorded as 5 (5: 50% to less than 60%) in data set [4] (5 g a.i./10a), 6 (6: 60% to less than 70%) in [4] (10 g a.i./10a), 4 (4: 40% to less than 50%) in data set [7] (5 g a.i./10a) and 5 (5: 50% to less than 60%) in [7] (10 g a.i./10a). Besides, the “herbicidal efficacy (growth inhibition rate level), Digitaria ciliaris” value in [5] (5 g a.i./10a) is on record as 2 (2: 20% to less than 30%); in data set [5] (10 g a.i./10a), 3 (3: 30% to less than 40%); in data set [8] (5 g a.i./10a) it was 3 (3: 30% to less than 40%); in [8] (10 g a.i./10a), 4 (4: 40% to less than 50%); in data set [11], 1 (1: 10% to less than 20%). Further, the “herbicidal efficacy (growth inhibition rate level), Chenopodium album” value in data set [6] (5 g a.i./10a), in data set [6] (10 g a.i./10a), in data set [9] (5 g a.i./10a) and in data set [9] (10 g a.i./10a) was 4 (4: 40% to less than 50%) in each case. For the same molecule, in data set [10], the “herbicidal efficacy (growth inhibition rate level), Galinsoga parviflora” value is recorded as 5 (5: 50% to less than 60%). For the same molecule, the “chemical damage (growth inhibition rate level), Oryza sativa” value in data set [12] (1 g a.i./10a) is recorded as 2 (2: 20% to less than 30%); in [12] (5 g a.i./10a) it was 3 (3: 30% to less than 40%).
With `N#Cc1cnn(-c2nn3c(c2Cl)CCCC3)c1NC(=O)CCCCl` [Control Agent 1.37], the figures for the “herbicidal efficacy (growth inhibition rate level), Scirpus juncoides” value in data set [1] (1 g a.i./10a) and in data set [1] (5 g a.i./10a) were 1 (1: 10% to less than 20%) and 2 (2: 20% to less than 30%), respectively. The “herbicidal efficacy (growth inhibition rate level), Monochoria vaginalis” value is on record as 2 (2: 20% to less than 30%) in data set [2] (1 g a.i./10a) and 4 (4: 40% to less than 50%) in data set [2] (5 g a.i./10a). Besides, the “herbicidal efficacy (growth inhibition rate level), Echinochloa crus-galli” value in data set [3] (1 g a.i./10a) and in [3] (5 g a.i./10a) was 3 (3: 30% to less than 40%) each time. Further, the “herbicidal efficacy (growth inhibition rate level), Amaranthus retroflexus” value in [4] (5 g a.i./10a) is 6 (6: 60% to less than 70%); in data set [4] (10 g a.i./10a), 7 (7: 70% to less than 80%); in data set [7] (5 g a.i./10a) it was 5 (5: 50% to less than 60%); in [7] (10 g a.i./10a) it was 6 (6: 60% to less than 70%). The “herbicidal efficacy (growth inhibition rate level), Digitaria ciliaris” value is given as 3 (3: 30% to less than 40%) in data set [5] (5 g a.i./10a); 4 (4: 40% to less than 50%) in [5] (10 g a.i./10a); 3 (3: 30% to less than 40%) in data set [8] (5 g a.i./10a); 4 (4: 40% to less than 50%) in data set [8] (10 g a.i./10a); 2 (2: 20% to less than 30%) in [11]. Further, the “herbicidal efficacy (growth inhibition rate level), Chenopodium album” value is listed as 4 (4: 40% to less than 50%) in data set [6] (5 g a.i./10a), 5 (5: 50% to less than 60%) in data set [6] (10 g a.i./10a), 4 (4: 40% to less than 50%) in [9] (5 g a.i./10a) and 5 (5: 50% to less than 60%) in data set [9] (10 g a.i./10a). For the same molecule, in data set [10], the “herbicidal efficacy (growth inhibition rate level), Galinsoga parviflora” value was 4 (4: 40% to less than 50%). Besides, the “chemical damage (growth inhibition rate level), Oryza sativa” value in [12] (1 g a.i./10a) and in data set [12] (5 g a.i./10a) was 2 (2: 20% to less than 30%) in each case.
